In ChEMBL document CHEMBL4476866, “Pyrrol-1-yl benzoic acid derivatives useful as myc inhibitors” (2015):
The source made the active and inactive calls. The rule behind the calls is not given here.

Columns and labels:
MM1.S = experiment: Cytotoxic activity against human MM1S cells assessed as reduction in cell viability incubated for 3 days by ATPlite assay; assay type: functional, cell-based
NCI-H2171 [1] = experiment: Cytotoxic activity against human NCI-H2171 cells assessed as reduction in cell viability incubated for 3 days by ATPlite assay; assay type: functional, cell-based
[2] = target: T1, Myc proto-oncogene protein (Homo sapiens, UniProt P01106); experiment: Inhibition of human c-Myc assessed as reduction in c-Myc/Max/Ebox DNA complex formation using pre-formed complex of c-Myc and biotinylated DNA containing single Ebox-sequence followed by compound addition and further addition of his6-tagged c-Max and incubated for 2 hrs by AlphaScreen assay
[3] = Induction of Ebox DNA (unknown origin) intercalation assessed as reduction in Max/Max/Ebox DNA complex formation at 1.7 to 15 uM by gel shift based orthogonal biochemical assay
[4] = Induction of Ebox DNA (unknown origin) intercalation assessed as reduction in MITF/MITF/Ebox DNA complex formation at 1.7 to 15 uM by gel shift based orthogonal biochemical assay
[5] = Induction of Ebox DNA (unknown origin) intercalation assessed as reduction in c-Myc/Max/Ebox DNA complex formation at 1.7 to 15 uM by gel shift based orthogonal biochemical assay
[6] = target: T1, Myc proto-oncogene protein; experiment: Inhibition of c-Myc in human NCI-H2171 cells assessed as reduction in c-Myc occupancy at Rp123a binding site at 100 uM incubated for 4 hrs by chromatin immunoprecipitation assay; assay type: cell-based
NCI-H2171 [7] = experiment: Induction of cell differentiation in human NCI-H2171 cells assessed as effect on CD14 gene expression at 12.5 to 25 uM incubated for 4 days by qRT-PCR analysis; assay type: functional, cell-based
[8] = target: Protein max (Homo sapiens) (UniProt P61244); experiment: Inhibition of Max in human NCI-H2171 cells assessed as reduction in Max occupancy at Rp123a binding site at 100 uM incubated for 4 hrs by chromatin immunoprecipitation assay; assay type: cell-based
[9] = target: Protein max (Homo sapiens) (UniProt P61244); experiment: Inhibition of Max in human NCI-H2171 cells assessed as reduction in Max occupancy at Npm1 binding site at 100 uM incubated for 4 hrs by chromatin immunoprecipitation assay; assay type: cell-based
NCI-H2171 [10] = experiment: Induction of cell differentiation in human NCI-H2171 cells assessed as effect on CD11c expression at 12.5 to 25 uM incubated for 4 days by FACS analysis; assay type: functional, cell-based
NCI-H2171 [11] = experiment: Effect on c-Myc protein levels in human NCI-H2171 cells at 100 uM incubated for 4 hrs by […]; assay type: functional, cell-based
NCI-H2171 [12] = experiment: Induction of cell differentiation in human NCI-H2171 cells assessed as effect on CCl4 gene expression at 12.5 to 25 uM incubated for 4 days by qRT-PCR analysis; assay type: functional, cell-based
[13] = target: Protein max (Homo sapiens) (UniProt P61244); experiment: Inhibition of Max in human NCI-H2171 cells assessed as reduction in Max occupancy at Mat2a binding site at 100 uM incubated for 4 hrs by chromatin immunoprecipitation assay; assay type: cell-based
[14] = target: Protein max (Homo sapiens) (UniProt P61244); experiment: Inhibition of Max in human NCI-H2171 cells assessed as reduction in Max occupancy at Hnrnpa2b1 binding site at 100 uM incubated for 4 hrs by chromatin immunoprecipitation assay; assay type: cell-based
[15] = target: T1, Myc proto-oncogene protein; experiment: Inhibition of c-Myc in human NCI-H2171 cells assessed as reduction in c-Myc occupancy at Mat2a binding site at 100 uM incubated for 4 hrs by chromatin immunoprecipitation assay; assay type: cell-based
NCI-H2171 [16] = experiment: Induction of cell differentiation in human NCI-H2171 cells assessed as effect on CD11c gene expression at 12.5 to 25 uM incubated for 4 days by qRT-PCR analysis; assay type: functional, cell-based
[17] = target: T1, Myc proto-oncogene protein; experiment: Inhibition of human his6-tagged c-Myc assessed as reduction in c-Myc/Max/Ebox DNA complex formation by gel shift based orthogonal biochemical assay
[18] = target: T1, Myc proto-oncogene protein; experiment: Inhibition of c-Myc in human NCI-H2171 cells assessed as reduction in c-Myc occupancy at Hnrnpa2b1 binding site at 100 uM incubated for 4 hrs by chromatin immunoprecipitation assay; assay type: cell-based
[19] = target: T1, Myc proto-oncogene protein; experiment: Inhibition of c-Myc in human NCI-H2171 cells assessed as reduction in c-Myc occupancy at Npm1 binding site at 100 uM incubated for 4 hrs by chromatin immunoprecipitation assay; assay type: cell-based
[20] = Homo sapiens, MM1.S, 72 h, read-out: EC50

Protein max (Homo sapiens), sequence (P61244 whole entry): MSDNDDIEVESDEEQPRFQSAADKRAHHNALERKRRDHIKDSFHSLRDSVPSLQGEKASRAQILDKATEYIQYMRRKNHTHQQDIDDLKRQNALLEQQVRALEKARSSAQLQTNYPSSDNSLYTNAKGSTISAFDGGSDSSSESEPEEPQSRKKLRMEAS
T1 sequence (P01106 whole entry): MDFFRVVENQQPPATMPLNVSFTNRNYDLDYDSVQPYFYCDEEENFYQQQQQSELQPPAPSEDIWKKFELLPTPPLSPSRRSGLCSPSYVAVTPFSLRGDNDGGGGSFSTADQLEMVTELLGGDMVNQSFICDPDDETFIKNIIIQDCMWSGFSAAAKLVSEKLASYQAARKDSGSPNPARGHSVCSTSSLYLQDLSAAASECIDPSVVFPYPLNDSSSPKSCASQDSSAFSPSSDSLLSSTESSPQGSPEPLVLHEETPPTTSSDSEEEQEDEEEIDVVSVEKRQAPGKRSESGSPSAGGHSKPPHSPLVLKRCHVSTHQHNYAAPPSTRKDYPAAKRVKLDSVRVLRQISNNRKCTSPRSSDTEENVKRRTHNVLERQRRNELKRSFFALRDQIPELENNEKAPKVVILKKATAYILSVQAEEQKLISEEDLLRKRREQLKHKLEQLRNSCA

Compound	EC50 (MM1.S; mm1.s)	EC50 (NCI-H2171 [1]; nci-h2171)	other results
Cc1ccc(C)n1-c1ncccc1C(=O)O	Not Active		
CC(=O)OCOC(=O)c1ccc(C(=O)N/N=C/c2c[nH]cn2)cc1-n1c(C)ccc1C	Not Active		
Cc1ccc(C)n1-c1cnccc1C(=O)O		Not Active	
Cc1ccc(C)n1-c1cccc(C(=O)c2ccccc2)c1C(=O)O	Not Active		
Cc1ccc(C)n1-c1cc(C(=O)N/N=C/c2ccc3ccccc3n2)ccc1C(=O)O		Not Active	
Cc1ccc(C)n1-c1cc(C(=O)N2CCOCC2)ccc1C(=O)O	Not Active		
COC(=O)c1ccc(-n2cccc2)cc1O			IC50 [2]: Not Active
Cc1c2ccccc2c(C)n1-c1ccccc1C(=O)O	Not Active	Not Active	
Cc1cc(C(=O)N/N=C/c2ccccc2)c(C)n1-c1ccccc1C(=O)O	Not Active	Not Active	
Cc1cc(C(=O)O)ccc1-n1c(C)ccc1C	Not Active		
Cc1ccc(C)n1-c1cc(C(=O)N/N=C/c2cccc(C(=O)O)c2)ccc1C(=O)O	Not Active	Not Active	
Cc1cc(C)c2c(=O)c(/C=N/NC(=O)c3ccc(C(=O)O)c(-n4c(C)ccc4C)c3)coc2c1		Not Active	
COc1ccc(/C=N/NC(=O)c2ccc(C(=O)O)c(-n3c(C)ccc3C)c2)c(OC)c1	Not Active		
Cc1ccc(C)n1-c1cc(C(=O)N/N=C/c2cccc3ncccc23)ccc1C(=O)O	Not Active		
COc1cccc2c1C(=O)c1c(O)c3c(c(O)c1C2=O)C[C@@](O)(C(=O)CO)C[C@@H]3O[C@H]1C[C@H](N)[C@H](O)[C@H](C)O1			Activity [3]: Active; Activity [4]: Active; Activity [5]: Active
CN(C)c1ccc(/N=N/c2ccccc2C(=O)O)cc1	Not Active		

Compound	EC50 (MM1.S; mm1.s)	EC50 (NCI-H2171 [1]; nci-h2171)	other results
Cc1ccc(C)n1-c1cc(C(=O)NN)ccc1C(=O)O			EC50 (MM1.S; [20]): 625 to 1240 µM; EC50 (NCI-H2171 [1]; nci-h2171, read-out: EC50): 3.63 to 43700 nM
Cc1ccc(C)n1-c1cc(C(=O)O)ccc1C(=O)O		Not Active	IC50 ([2]; read-out: IC50): 788 nM
Cc1ccc(C)n1-c1cc(C(=O)NNC(=O)c2cccc(C(=O)O)c2)ccc1C(=O)O	Not Active	Not Active	
Cc1ccc(C)n1-c1cc(C(=O)N/N=C/c2ccc(C(=O)O)o2)ccc1C(=O)O	Not Active	Not Active	
Cc1ccc(C)n1-c1ccc(C(=O)O)cc1O	Not Active		
Cc1ccc(C)n1-c1ccccc1C(=O)O			inhibition [6]: Active; Activity (NCI-H2171 [7]): Active; inhibition [8]: inactive; inhibition [9]: inactive; Activity (NCI-H2171 [10]): Active; inhibition (NCI-H2171 [11]): inactive; Activity (NCI-H2171 [12]): Active; inhibition [13]: inactive; inhibition [14]: inactive; inhibition [15]: Active; Activity (NCI-H2171 [16]): Active; inhibition [17]: Dose-dependent effect; inhibition [18]: Active; inhibition [19]: Active
Cc1ccc(C)n1-c1cc(C(=O)N/N=C/c2ccc(S(=O)(=O)O)o2)ccc1C(=O)O	Not Active		
Cc1ccc(C)n1-c1cc(C(=O)N/N=C/c2cc(C(=O)O)ccc2F)ccc1C(=O)O		Not Active	
Cc1ccc(C)n1-c1ccc(C(=O)O)c([N+](=O)[O-])c1		Not Active	
Cc1ccc(C)n1-c1cc(C(=O)N/N=C\c2ccc(C(=O)O)s2)ccc1C(=O)O	Not Active		
CC(=O)OCOC(=O)c1ccc(C(=O)N/N=C/c2ccc(O)c(O)c2O)cc1-n1c(C)ccc1C			EC50 (MM1.S; [20]): 14.8 µM; EC50 (NCI-H2171 [1]; Homo sapiens, NCI-H2171, 72 h, read-out: EC50): 2230 nM
Cc1ccc(C)n1-c1cc(C(=O)N/N=C/c2ccc3cccnc3n2)ccc1C(=O)O		Not Active	
Cc1ccc(C)n1-c1cc(C(=O)N/N=C\c2ccc(O)c(F)c2)ccc1C(=O)O	Not Active	Not Active	
Cc1ccc(C)n1-c1cc(C(=O)N/N=C/c2ccc3nccnc3c2)ccc1C(=O)O	Not Active	Not Active	
Cc1ccc(C)n1-c1cc(C(=O)N/N=C\c2cc(F)c(C(=O)O)c(F)c2)ccc1C(=O)O	Not Active	Not Active	
